Assay results from ChEMBL document CHEMBL1914376, “Synthesis and in vitro evaluation of 7-methoxy-N-(pent-4-enyl)-1,2,3,4-tetrahydroacridin-9-amine-new tacrine derivate with cholinergic properties” (Bioorg Med Chem Lett, 2011).

Tests used:
Cholinesterase = Cholinesterase (Homo sapiens, UniProt P06276)
Description: Inhibition of human plasmatic BChE after 5 mins using spectrophotometer by Ellman's method

Acetylcholinesterase [1] = target: T1, Acetylcholinesterase (Homo sapiens, UniProt P22303)
Description: Inhibition of human recombinant AChE after 5 mins using spectrophotometer by Ellman's method

Acetylcholinesterase [2] = target: T1, Acetylcholinesterase; experiment: Ratio of 7-MEOTA IC50 to compound IC50 for human recombinant AChE
Acetylcholinesterase [3] = target: T1, Acetylcholinesterase; experiment: Ratio of Tacrine IC50 to compound IC50 for human recombinant AChE

T1 sequence (P22303 whole entry): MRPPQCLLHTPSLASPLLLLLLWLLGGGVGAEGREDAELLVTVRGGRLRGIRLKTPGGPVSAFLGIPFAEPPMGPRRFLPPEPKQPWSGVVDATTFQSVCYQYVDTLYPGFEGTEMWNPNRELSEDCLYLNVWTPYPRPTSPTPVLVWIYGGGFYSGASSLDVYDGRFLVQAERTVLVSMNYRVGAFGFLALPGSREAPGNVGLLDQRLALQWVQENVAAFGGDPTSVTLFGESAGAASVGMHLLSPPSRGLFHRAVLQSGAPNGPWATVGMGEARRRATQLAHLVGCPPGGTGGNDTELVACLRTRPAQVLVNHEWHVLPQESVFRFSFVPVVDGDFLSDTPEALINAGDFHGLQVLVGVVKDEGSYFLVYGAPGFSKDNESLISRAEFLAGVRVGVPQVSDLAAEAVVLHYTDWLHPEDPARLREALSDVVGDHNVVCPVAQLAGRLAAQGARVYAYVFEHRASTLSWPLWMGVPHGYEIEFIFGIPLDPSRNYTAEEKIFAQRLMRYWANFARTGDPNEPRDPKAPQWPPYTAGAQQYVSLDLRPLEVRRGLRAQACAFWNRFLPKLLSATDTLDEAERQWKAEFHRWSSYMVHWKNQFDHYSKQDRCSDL
Cholinesterase, sequence (P06276 whole entry): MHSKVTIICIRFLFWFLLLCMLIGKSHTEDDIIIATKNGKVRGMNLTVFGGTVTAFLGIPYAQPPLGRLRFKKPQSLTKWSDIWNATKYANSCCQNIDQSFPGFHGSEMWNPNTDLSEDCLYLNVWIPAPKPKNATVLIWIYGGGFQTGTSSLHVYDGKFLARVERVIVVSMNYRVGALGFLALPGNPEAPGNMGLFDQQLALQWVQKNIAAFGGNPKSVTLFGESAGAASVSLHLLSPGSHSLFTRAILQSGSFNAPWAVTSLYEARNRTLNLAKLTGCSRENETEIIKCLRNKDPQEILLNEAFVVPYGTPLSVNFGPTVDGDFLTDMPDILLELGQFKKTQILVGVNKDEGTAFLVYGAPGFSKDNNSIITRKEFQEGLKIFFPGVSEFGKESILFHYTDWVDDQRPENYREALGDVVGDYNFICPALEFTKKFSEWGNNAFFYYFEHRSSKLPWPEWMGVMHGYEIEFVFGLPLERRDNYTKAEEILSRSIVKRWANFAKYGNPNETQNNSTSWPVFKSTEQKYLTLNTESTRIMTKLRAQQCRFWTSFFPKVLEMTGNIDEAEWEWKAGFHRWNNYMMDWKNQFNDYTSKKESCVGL

SMILES	IC50 (Cholinesterase)	IC50 (Acetylcholinesterase [1])	Ratio IC50 (Acetylcholinesterase [2])	Ratio IC50 (Acetylcholinesterase [3])
C=CCCCNc1c2c(nc3ccc(OC)cc13)CCCC2	1.1 µM	2.2 µM	5	10
COc1ccc2nc3c(c(N4CCCCCN(c5c6c(nc7ccc(OC)cc57)CCCC6)CCCCC4)c2c1)CCCC3	656 µM	4.6 µM	–	–
